Experiments:
[1] = system: A-375; assay: Antiproliferative activity against human A375 cells assessed as reduction in cell growth at 8 uM incubated for 72 hrs by CCK-8 assay relative to control; format: functional; conditions: A-375, 72 h
[2] = system: A-375; assay: Antiproliferative activity against human A375 cells assessed as reduction in cell growth at 2 uM incubated for 72 hrs by CCK-8 assay relative to control; format: functional; conditions: A-375, 72 h
[3] = system: HeLa; assay: Antiproliferative activity against human HeLa cells assessed as reduction in cell growth at 8 uM incubated for 72 hrs by CCK-8 assay relative to control; format: functional
[4] = system: HeLa; assay: Antiproliferative activity against human HeLa cells assessed as reduction in cell growth at 2 uM incubated for 72 hrs by CCK-8 assay relative to control; format: functional
[5] = system: A549; assay: Antiproliferative activity against human A549 cells assessed as reduction in cell growth at 8 uM incubated for 72 hrs by CCK-8 assay relative to control; format: functional; conditions: A549, 72 h
[6] = system: A549; assay: Antiproliferative activity against human A549 cells assessed as reduction in cell growth at 2 uM incubated for 72 hrs by CCK-8 assay relative to control; format: functional; conditions: A549, 72 h
[7] = system: HCT-116; assay: Antiproliferative activity against human HCT116 cells assessed as reduction in cell growth at 8 uM incubated for 72 hrs by CCK-8 assay relative to control; format: functional; conditions: HCT-116, 72 h
[8] = system: HCT-116; assay: Antiproliferative activity against human HCT116 cells assessed as reduction in cell growth at 2 uM incubated for 72 hrs by CCK-8 assay relative to control; format: functional; conditions: HCT-116, 72 h
[9] = system: SMMC-7721; assay: Antiproliferative activity against human SMMC7721 cells assessed as reduction in cell growth at 8 uM incubated for 72 hrs by CCK-8 assay relative to control; format: functional; conditions: SMMC-7721, 72 h
[10] = system: SMMC-7721; assay: Antiproliferative activity against human SMMC7721 cells assessed as reduction in cell growth at 2 uM incubated for 72 hrs by CCK-8 assay relative to control; format: functional; conditions: SMMC-7721, 72 h
[11] = system: HCT-116; assay: Antiproliferative activity against human HCT116 cells assessed as reduction in cell growth incubated for 72 hrs by CCK-8 assay; format: functional, cell-based; conditions: HCT-116, 72 h
[12] = system: SMMC-7721; assay: Antiproliferative activity against human SMMC7721 cells assessed as reduction in cell growth incubated for 72 hrs by CCK-8 assay; format: functional, cell-based; conditions: SMMC-7721, 72 h
[13] = system: A-375; assay: Antiproliferative activity against human A375 cells assessed as reduction in cell growth incubated for 72 hrs by CCK-8 assay; format: functional, cell-based; conditions: A-375, 72 h
[14] = system: HeLa; assay: Antiproliferative activity against human HeLa cells assessed as reduction in cell growth incubated for 72 hrs by CCK-8 assay; format: functional, cell-based

| IC50 [11] [µM] | IC50 [12] [µM] | IC50 [13] [µM] | IC50 [14] [µM] | SMILES | inhibition at 8 µM [1] [%] | inhibition at 2 µM [2] [%] | inhibition at 8 µM [3] [%] | inhibition at 2 µM [4] [%] | inhibition at 8 µM [5] [%] | inhibition at 2 µM [6] [%] | inhibition at 8 µM [7] [%] | inhibition at 2 µM [8] [%] | inhibition at 8 µM [9] [%] | inhibition at 2 µM [10] [%] |
| --- | --- | --- | --- | --- | --- | --- | --- | --- | --- | --- | --- | --- | --- | --- |
| 5.8 |  |  |  | COc1ccc2c(=O)n(-c3cccc(Cl)c3)c(SCc3ccc(C(=O)Nc4ccccc4N)cc3)nc2c1 | 36 | 21.7 | 51.2 | 12.3 | 30 | 20.9 | 64 | 22 | 27 | 21.3 |
| 3.63 |  |  |  | CCCCn1c(SCc2ccc(C(=O)Nc3ccccc3N)cc2)nc2cc(F)ccc2c1=O | 43.1 | 18 | 30.9 | 30.9 | 46.5 | 41.1 | 78.2 | 22.8 | 41.6 | 9.1 |
| 2.47 | 3.62 | 1.19 | 3.12 | Cc1ccc2c(=O)n(C)c(SCc3ccc(C(=O)Nc4ccccc4N)cc3)nc2c1 | 88.2 | 52.9 | 84.3 | 59.8 | 52.7 | 23.3 | 74.9 | 59.8 | 78.9 | 41.7 |
| 1.29 | 5.37 | 2.3 |  | COc1ccc2c(=O)n(-c3ccccc3C)c(SCc3ccc(C(=O)Nc4ccccc4N)cc3)nc2c1 | 83.6 | 39.1 | 33.1 | 23.6 | 54.5 | 36.3 | 88.2 | 73.5 | 78.1 | 58.2 |
| 2.22 | 3.32 | 3.01 | 4.99 | Cn1c(SCc2ccc(C(=O)Nc3ccccc3N)cc2)nc2cc(Cl)ccc2c1=O | 51.2 | 44.5 | 76.5 | 51.1 | 22.3 | 21.8 | 81.5 | 58.7 | 73.2 | 38.9 |
| 2.71 | 0.9 | 3.28 | 4.81 | Cn1c(SCc2ccc(C(=O)Nc3ccccc3N)cc2)nc2cc(F)ccc2c1=O | 64.3 | 30 | 84.6 | 39.7 | 45 | 21.3 | 79.7 | 51.7 | 75.1 | 52.5 |
|  | 3.56 |  |  | Cc1cccc2nc(SCc3ccc(/C=C/C(=O)Nc4ccccc4N)cc3)n(C)c(=O)c12 | 32.4 | 24.4 | 51.8 | 44.3 | 46 | 39.4 | 11.7 | 8.9 | 52.3 | 50.5 |
| 2.01 | 1.67 | 2.57 | 0.95 | Cc1ccc2nc(SCc3ccc(C(=O)Nc4ccccc4N)cc3)n(C)c(=O)c2c1 | 73.6 | 44.6 | 85.5 | 63 | 33.9 | 18.2 | 79.3 | 49.2 | 75.7 | 65.6 |
| 4.33 |  |  |  | CCn1c(SCc2ccc(C(=O)Nc3ccccc3N)cc2)nc2cc(Br)ccc2c1=O | 40.7 | 19.8 | 41.3 | 30.4 | 45.4 | 20.4 | 68.5 | 24.8 | 36.8 | 22.9 |
